Like-named read-outs stand apart in the source and are kept apart here. *1 amine or outer side, *2 acyl side, *3 side chain or, on linkers, in order; H or OH if unused. Where a SMILES comes first, the peptide text is derived from it. Side-chain parts run from the residue outwards. [ ]: non-standard residue; d: D form. The star is where a group is joined. Decanoyl(10-(4-HOOC-PhO)) = O=C(O)c1ccc(OCCCCCCCCCC(=O)*)cc1; αMePhe(2-F) = C[C@](N)(Cc1ccccc1F)C(=O)O; γGlu = O=C(O)[C@H](CCC(=O)[*:2])N[*:1]; C14 diacid = O=C(O)CCCCCCCCCCCCC(=O)*; αMeY = C[C@](N)(Cc1ccc(O)cc1)C(=O)O; αMeL = CC(C)C[C@](C)(N)C(=O)O; Orn = NCCC[C@H](N)C(=O)O; AEEA = NCCOCCOCC(=O)O; Aib = CC(C)(N)C(=O)O
Tests used:
Type in all cases: cell-based
[1] = biological target: T1, hGIPR (Homo sapiens, UniProt P48546); assay: Functional cAMP formation (HTRF) in HEK-293 clonal cells expressing hGIPR, 0.1% bovine casein, without or with 1.0% human serum albumin; details: for Emax: percent of maximal response to GIP(1-42)NH2; for EC50: cAMP, 0.1% bovine casein (no human serum albumin), geometric mean
T1 construct: expressed in transfected cells
T1 sequence (P48546 22-466): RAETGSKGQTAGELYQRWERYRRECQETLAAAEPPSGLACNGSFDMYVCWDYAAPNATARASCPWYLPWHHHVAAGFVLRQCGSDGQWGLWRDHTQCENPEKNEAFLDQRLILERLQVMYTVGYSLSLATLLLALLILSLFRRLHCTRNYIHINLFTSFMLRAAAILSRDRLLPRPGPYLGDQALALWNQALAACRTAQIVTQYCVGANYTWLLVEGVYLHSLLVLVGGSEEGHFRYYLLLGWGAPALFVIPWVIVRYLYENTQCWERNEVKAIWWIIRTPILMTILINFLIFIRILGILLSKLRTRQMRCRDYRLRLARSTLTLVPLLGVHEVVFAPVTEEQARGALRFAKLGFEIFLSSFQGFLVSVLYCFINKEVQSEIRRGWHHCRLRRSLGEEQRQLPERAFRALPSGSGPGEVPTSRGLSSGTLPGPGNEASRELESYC
Outline: (§1)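 Cells were stimulated with peptide for 30 min at 37° C, then lysed in buffer carrying cAMP-d2 and anti-cAMP Eu3+-cryptate for a competitive HTRF read after at least 60 min at room temperature. The 665/620 nm ratio was converted to nM cAMP against a standard curve.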

[2] = biological target: hGLP-1R (Homo sapiens, UniProt P43220); assay: Functional cAMP formation (HTRF) in HEK-293 clonal cells expressing hGLP-1R, 0.1% bovine casein, without or with 1.0% human serum albumin; set-up: expressed in transfected cells; details: for Emax: percent of maximal response to GLP-1(7-36)NH2; for EC50: cAMP, 0.1% bovine casein (no human serum albumin), geometric mean
hGLP-1R, sequence (P43220 24-463): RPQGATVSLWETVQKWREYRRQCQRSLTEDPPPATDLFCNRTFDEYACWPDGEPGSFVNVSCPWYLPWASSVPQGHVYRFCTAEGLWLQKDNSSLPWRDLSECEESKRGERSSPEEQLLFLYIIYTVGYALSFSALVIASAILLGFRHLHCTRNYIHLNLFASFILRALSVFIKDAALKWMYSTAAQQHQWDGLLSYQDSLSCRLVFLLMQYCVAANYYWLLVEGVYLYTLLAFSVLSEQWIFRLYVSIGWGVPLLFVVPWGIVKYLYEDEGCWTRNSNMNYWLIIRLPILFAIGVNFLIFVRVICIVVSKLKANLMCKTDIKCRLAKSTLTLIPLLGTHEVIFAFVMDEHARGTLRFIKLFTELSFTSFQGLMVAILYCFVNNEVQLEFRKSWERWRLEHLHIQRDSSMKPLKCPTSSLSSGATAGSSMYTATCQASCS
Outline: as §1

[3] = biological target: T2, hGCGR (Homo sapiens, UniProt P47871); assay: Functional cAMP formation (HTRF) in HEK-293 clonal cells expressing hGCGR, 0.1% bovine casein, without or with 1.0% human serum albumin; details: cAMP, 37° C.
T2 construct: expressed in transfected cells
T2 sequence (P47871 26-477): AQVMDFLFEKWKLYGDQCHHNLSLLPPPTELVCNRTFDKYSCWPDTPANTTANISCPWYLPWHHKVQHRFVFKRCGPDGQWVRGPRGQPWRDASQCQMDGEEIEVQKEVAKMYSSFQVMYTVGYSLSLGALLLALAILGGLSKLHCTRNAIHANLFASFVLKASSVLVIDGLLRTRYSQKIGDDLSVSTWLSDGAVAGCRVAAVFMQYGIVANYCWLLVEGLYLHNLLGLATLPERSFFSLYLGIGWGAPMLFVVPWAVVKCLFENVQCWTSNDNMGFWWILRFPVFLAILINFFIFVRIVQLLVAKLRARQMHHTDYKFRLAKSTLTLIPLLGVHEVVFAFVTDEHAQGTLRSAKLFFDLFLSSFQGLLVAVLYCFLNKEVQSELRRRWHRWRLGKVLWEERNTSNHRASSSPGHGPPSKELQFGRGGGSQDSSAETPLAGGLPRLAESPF
Outline: as §1

[4] = HEK293, cAMP, 37° C., 0.1% bovine casein and 1.0% human serum albumin, read-out: hGIPR Emax, % ± SEM
[5] = 37° C., read-out: hGIPR EC50, nM (SEM, n)
[6] = HEK293, cAMP, 37° C., 0.1% bovine casein and 1.0% human serum albumin, read-out: hGLP-1R Emax, % ± SEM
[7] = HEK293, cAMP, 37° C., 0.1% bovine casein, arithmetic mean, read-out: hGLP-1R Emax, % ± SEM
[8] = 37° C., read-out: hGLP-1R EC50, nM (SEM, n)
[9] = 0.1% bovine casein (no human serum albumin), geometric mean, read-out: hGCGR EC50, nM (SEM, n)
[10] = 0.1% bovine casein and 1.0% human serum albumin, geometric mean (SEM, n), read-out: hGCGR EC50, nM (SEM, n)
[11] = HEK293, read-out: hGIPR Emax, % ± SEM, cAMP, 37° C., 0.1% bovine casein and 1.0% human serum albumin
[12] = HEK293, read-out: hGIPR Emax, % ± SEM, cAMP, 37° C., 0.1% bovine casein, arithmetic mean
[13] = hGIPR EC50, nM (SEM, n), 37° C.
[14] = HEK293, read-out: hGLP-1R Emax, % ± SEM, cAMP, 37° C., 0.1% bovine casein and 1.0% human serum albumin
[15] = hGLP-1R EC50, nM (SEM, n), 37° C.
[16] = hGCGR EC50, nM (SEM, n), 0.1% bovine casein (no human serum albumin), geometric mean
[17] = hGCGR EC50, nM (SEM, n), 0.1% bovine casein and 1.0% human serum albumin, geometric mean (SEM, n)

SMILES	Emax [1, 4]	Emax ([1]; HEK293, cAMP, 37° C., 0.1% bovine casein, arithmetic mean, read-out: hGIPR Emax, % ± SEM)	EC50 [1, 5]	Emax [2, 6]	Emax [2, 7]	EC50 [2, 8]	EC50 [3, 9]	EC50 [3, 10]	Emax [1, 11]	Emax [1, 12]	EC50 [1, 13]	Emax [2, 14]	EC50 [2, 15]	EC50 [3, 16]	EC50 [3, 17]	Emax ([2]; HEK293, read-out: hGLP-1R Emax, % ± SEM, cAMP, 37° C., 0.1% bovine casein, arithmetic mean)
CC[C@H](C)[C@H](NC(=O)[C@H](CC(C)C)NC(=O)[C@](C)(Cc1ccc(O)cc1)NC(=O)[C@@H](CCC(=O)O)NC(=O)[C@@H](NC(=O)[C@H](Cc1ccccc1)NC(=O)[C@H](CCCN)NC(=O)C(C)(C)NC(=O)[C@H](CCC(N)=O)NC(=O)[C@H](C)NC(=O)[C@H](CCCCNC(=O)COCCOCCNC(=O)COCCOCCNC(=O)CC[C@H](NC(=O)CCCCCCCCCCCCC(=O)O)C(=O)O)NC(=O)[C@H](CCCN)NC(=O)[C@H](CC(=O)O)NC(=O)[C@H](CC(C)C)NC(=O)[C@](C)(CC(C)C)NC(=O)[C@@H](NC(=O)C(C)(C)NC(=O)[C@H](Cc1ccc(O)cc1)NC(=O)[C@H](CC(=O)O)NC(=O)[C@H](CO)NC(=O)[C@@H](NC(=O)[C@](C)(Cc1ccccc1F)NC(=O)[C@@H](NC(=O)CNC(=O)[C@H](CCC(=O)O)NC(=O)C(C)(C)NC(=O)[C@@H](N)Cc1ccc(O)cc1)[C@@H](C)O)[C@@H](C)O)[C@@H](C)CC)[C@@H](C)CC)C(=O)N[C@@H](CCCCNC(=O)COCCOCCNC(=O)COCCOCCNC(=O)CC[C@H](NC(=O)CCCCCCCCCCCCC(=O)O)C(=O)O)C(=O)NCC(=O)NCC(=O)N1CCC[C@H]1C(=O)N[C@@H](CO)C(=O)N[C@@H](CO)C(=O)NCC(=O)N[C@@H](C)C(=O)N1CCC[C@H]1C(=O)N1CCC[C@H]1C(=O)N1CCC[C@H]1C(=O)N[C@@H](CO)C(N)=O [Example 349] (H-Y[Aib]EGT[αMePhe(2-F)]TSDY[Aib]I[αMeL]LD[Orn]K([AEEA-AEEA-γGlu-C14 diacid])AQ[Aib][Orn]FI[dE][αMeY]LIK([AEEA-AEEA-γGlu-C14 diacid])GGPSSGAPPPS-NH2; N-terminus assumed)	79.3%	95.9%	0.015 nM	94.3%	99%	0.334 nM	> 9950 nM	> 9950 nM								
CC[C@H](C)[C@H](NC(=O)[C@H](CC(C)C)NC(=O)[C@](C)(Cc1ccc(O)cc1)NC(=O)[C@@H](CCC(=O)O)NC(=O)[C@@H](NC(=O)[C@H](Cc1ccccc1)NC(=O)[C@H](CCCN)NC(=O)C(C)(C)NC(=O)[C@H](CCC(N)=O)NC(=O)[C@H](C)NC(=O)[C@H](CCCCNC(=O)COCCOCCNC(=O)COCCOCCNC(=O)CC[C@H](NC(=O)CCCCCCCCCCCCC(=O)O)C(=O)O)NC(=O)[C@H](CCCN)NC(=O)[C@H](CC(=O)O)NC(=O)[C@H](CC(C)C)NC(=O)[C@](C)(CC(C)C)NC(=O)[C@@H](NC(=O)C(C)(C)NC(=O)[C@@H](NC(=O)[C@H](CC(=O)O)NC(=O)[C@H](CO)NC(=O)[C@@H](NC(=O)[C@](C)(Cc1ccccc1F)NC(=O)[C@@H](NC(=O)CNC(=O)[C@H](CCC(=O)O)NC(=O)C(C)(C)NC(=O)[C@@H](N)Cc1ccc(O)cc1)[C@@H](C)O)[C@@H](C)O)C(C)C)[C@@H](C)CC)[C@@H](C)CC)C(=O)N[C@@H](CCCCNC(=O)COCCOCCNC(=O)COCCOCCNC(=O)CC[C@H](NC(=O)CCCCCCCCCCCCC(=O)O)C(=O)O)C(=O)NCC(=O)NCC(=O)N1CCC[C@H]1C(=O)N[C@@H](CO)C(=O)N[C@@H](CO)C(=O)NCC(=O)N[C@@H](C)C(=O)N1CCC[C@H]1C(=O)N1CCC[C@H]1C(=O)N1CCC[C@H]1C(=O)N[C@@H](CO)C(N)=O [Example 350]	73.5%		0.0288 nM	91.4%	95.9%	0.202 nM	> 9950 nM	> 9950 nM								
CC[C@H](C)[C@H](NC(=O)[C@H](CC(C)C)NC(=O)[C@](C)(Cc1ccc(O)cc1)NC(=O)[C@@H](CCC(=O)O)NC(=O)[C@@H](NC(=O)[C@H](Cc1ccccc1)NC(=O)[C@H](CCCN)NC(=O)C(C)(C)NC(=O)[C@H](CCC(N)=O)NC(=O)[C@H](C)NC(=O)[C@H](CCCCNC(=O)COCCOCCNC(=O)COCCOCCNC(=O)CC[C@H](NC(=O)CCCCCCCCCOc1ccc(C(=O)O)cc1)C(=O)O)NC(=O)[C@H](CCCN)NC(=O)[C@H](CC(=O)O)NC(=O)[C@H](CC(C)C)NC(=O)[C@](C)(CC(C)C)NC(=O)[C@@H](NC(=O)C(C)(C)NC(=O)[C@H](Cc1ccc(O)cc1)NC(=O)[C@H](CC(=O)O)NC(=O)[C@H](CO)NC(=O)[C@@H](NC(=O)[C@](C)(Cc1ccccc1F)NC(=O)[C@@H](NC(=O)CNC(=O)[C@H](CCC(=O)O)NC(=O)C(C)(C)NC(=O)[C@@H](N)Cc1ccc(O)cc1)[C@@H](C)O)[C@@H](C)O)[C@@H](C)CC)[C@@H](C)CC)C(=O)N[C@@H](CCCCNC(=O)COCCOCCNC(=O)COCCOCCNC(=O)CC[C@H](NC(=O)CCCCCCCCCOc1ccc(C(=O)O)cc1)C(=O)O)C(=O)NCC(=O)NCC(=O)N1CCC[C@H]1C(=O)N[C@@H](CO)C(=O)N[C@@H](CO)C(=O)NCC(=O)N[C@@H](C)C(=O)N1CCC[C@H]1C(=O)N1CCC[C@H]1C(=O)N1CCC[C@H]1C(=O)N[C@@H](CO)C(N)=O [Example 352] (H-Y[Aib]EGT[αMePhe(2-F)]TSDY[Aib]I[αMeL]LD[Orn]K([AEEA-AEEA-γGlu-Decanoyl(10-(4-HOOC-PhO))])AQ[Aib][Orn]FI[dE][αMeY]LIK([AEEA-AEEA-γGlu-Decanoyl(10-(4-HOOC-PhO))])GGPSSGAPPPS-NH2)									71.3%	98.3%	0.0106 nM	93.5%	0.262 nM	> 9950 nM	> 9950 nM	
CC[C@H](C)[C@H](NC(=O)[C@H](CC(C)C)NC(=O)[C@](C)(Cc1ccc(O)cc1)NC(=O)[C@@H](CCC(=O)O)NC(=O)[C@@H](NC(=O)[C@H](Cc1ccccc1)NC(=O)[C@H](CCCN)NC(=O)C(C)(C)NC(=O)[C@H](CCC(N)=O)NC(=O)[C@H](C)NC(=O)[C@H](CCCCNC(=O)COCCOCCNC(=O)COCCOCCNC(=O)CC[C@H](NC(=O)CCCCCCCCCOc1ccc(C(=O)O)cc1)C(=O)O)NC(=O)[C@H](CCCN)NC(=O)[C@H](CC(=O)O)NC(=O)[C@H](CC(C)C)NC(=O)[C@](C)(CC(C)C)NC(=O)[C@@H](NC(=O)C(C)(C)NC(=O)[C@@H](NC(=O)[C@H](CC(=O)O)NC(=O)[C@H](CO)NC(=O)[C@@H](NC(=O)[C@](C)(Cc1ccccc1F)NC(=O)[C@@H](NC(=O)CNC(=O)[C@H](CCC(=O)O)NC(=O)C(C)(C)NC(=O)[C@@H](N)Cc1ccc(O)cc1)[C@@H](C)O)[C@@H](C)O)C(C)C)[C@@H](C)CC)[C@@H](C)CC)C(=O)N[C@@H](CCCCNC(=O)COCCOCCNC(=O)COCCOCCNC(=O)CC[C@H](NC(=O)CCCCCCCCCOc1ccc(C(=O)O)cc1)C(=O)O)C(=O)NCC(=O)NCC(=O)N1CCC[C@H]1C(=O)N[C@@H](CO)C(=O)N[C@@H](CO)C(=O)NCC(=O)N[C@@H](C)C(=O)N1CCC[C@H]1C(=O)N1CCC[C@H]1C(=O)N1CCC[C@H]1C(=O)N[C@@H](CO)C(N)=O [Example 353]									84.8%	98.2%	0.0249 nM	92.5%	0.203 nM	> 9950 nM	> 9950 nM	98%

— patent US20230265151A1, “GIP/GLP1 CO-AGONIST COMPOUNDS” (priority 2020, published 2023)
